Source: US20220315554A1, “COMPOUNDS COMPRISING A […] LIGAND AND USE THEREOF” (priority 2019, published 2022)
Numbered stars: 1 amine (or outer) side, 2 acyl side, 3 side chain; on linkers, the order of the positions; unused ones are H or OH. Bridge positions count the residues as written; N and C are the ends. Square brackets hold non-standard residues; d marks the D form. Peptide text beside a SMILES is read from it. * marks the point of attachment. TBMB(SCH2CH2NH-DOTA) = O=C(O)CN1CCN(CC(=O)O)CCN(CC(=O)NCCSCc2cc(C[*:1])cc(C[*:2])c2)CCN(CC(=O)O)CC1; X3 = NC(=O)[C@H](CCCCNC(=O)CN1CCN(CC(=O)O)CCN(CC(=O)O)CCN(CC(=O)O)CC1)NC(=O)CCC(=O)NCCCOCCOCCOCCCN*; NH(CH2)5NHDOTA = O=C(O)CN1CCN(CC(=O)O)CCN(CC(=O)NCCCCCN*)CCN(CC(=O)O)CC1; X2 = O=C(O)CN1CCN(CC(=O)O)CCN(CC(=O)NCCCOCCOCCOCCCN*)CCN(CC(=O)O)CC1; mXylylene = c1cc(C[*:1])cc(C[*:2])c1; Pentanesulfonyl = CCCCCS(=O)(=O)*; Suc = O=C(CCC(=O)[*:2])[*:1]; Nle = CCCC[C@H](N)C(=O)O; Hexanoyl = CCCCCC(=O)*

Columns and labels:
[1] = molecular target: T1, FAP-expressing human WI-38 fibroblasts (Homo sapiens, UniProt Q12884); assay: Competitive FACS binding assay; settings: pIC50 Category (FACS), competition with 3 nM Cy5-labeled compound, 4° C., 1 hour
T1 construct: FAP-expressing human WI-38 fibroblasts (ECACC) were cultured in EMEM; host or cells: WI-38 human fibroblasts
T1 sequence (Q12884 1-760): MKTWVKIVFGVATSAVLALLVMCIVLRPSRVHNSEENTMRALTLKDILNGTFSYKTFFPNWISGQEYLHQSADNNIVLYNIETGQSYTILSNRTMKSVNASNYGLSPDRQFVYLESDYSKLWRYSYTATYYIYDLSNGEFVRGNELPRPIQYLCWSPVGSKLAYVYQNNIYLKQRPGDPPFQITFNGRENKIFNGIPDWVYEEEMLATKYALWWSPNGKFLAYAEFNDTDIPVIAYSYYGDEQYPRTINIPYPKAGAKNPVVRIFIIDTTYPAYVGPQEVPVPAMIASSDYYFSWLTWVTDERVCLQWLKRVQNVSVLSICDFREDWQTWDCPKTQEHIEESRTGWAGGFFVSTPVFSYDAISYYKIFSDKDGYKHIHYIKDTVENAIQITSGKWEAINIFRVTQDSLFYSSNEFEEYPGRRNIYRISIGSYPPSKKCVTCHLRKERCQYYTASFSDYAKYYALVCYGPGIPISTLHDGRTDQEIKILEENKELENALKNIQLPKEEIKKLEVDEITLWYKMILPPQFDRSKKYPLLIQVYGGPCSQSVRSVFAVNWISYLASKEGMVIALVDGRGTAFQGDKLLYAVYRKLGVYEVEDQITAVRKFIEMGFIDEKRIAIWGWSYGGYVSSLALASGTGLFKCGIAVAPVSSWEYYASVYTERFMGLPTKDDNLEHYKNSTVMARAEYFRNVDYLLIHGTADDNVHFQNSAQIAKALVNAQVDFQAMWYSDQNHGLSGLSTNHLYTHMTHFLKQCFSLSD
Procedure: Cells were analyzed in an Attune NxT flow cytometer. […]

Human recombinant FAP [2] = molecular target: T2, Human recombinant FAP (Homo sapiens, UniProt Q12884); assay: FRET-based FAP protease activity assay; assay type: biochemical; design: purchased R&D systems 3715-SE; settings: pIC50 Category (Activity), FRET substrate, 37° C.
T2 sequence (Q12884 1-760): T1 sequence (Q12884 1-760)

Human recombinant FAP [3] = molecular target: T2, Human recombinant FAP; assay: Surface plasmon resonance (Biacore) assay; assay type: binding

SMILES	IC50 ([1]; WI-38 fibroblasts)	IC50 (Human recombinant FAP [2]; recombinant human FAP)	Kd (Human recombinant FAP [3])	IC50 [1]	IC50 (Human recombinant FAP [2])
CCCC[C@H](NC(=O)CCC(=O)NCCCOCCOCCOCCCNC(=O)CN1CCN(CC(=O)O)CCN(CC(=O)O)CCN(CC(=O)O)CC1)C(=O)N[C@H]1CSCc2cccc(c2)CSC[C@@H](C(=O)N[C@@H](CC(=O)O)C(N)=O)NC(=O)[C@H](Cc2ccccc2)NC(=O)[C@H](CCC(N)=O)NC(=O)[C@H]([C@@H](C)O)NC(=O)[C@@H]2CCCN2C(=O)[C@@H]2CCCN2C1=O [3BP-3401, DOTA-Ttds-Nle-[Cys(3MeBn)-Pro-Pro-Thr-Gln-Phe-Cys]-Asp-NH2] ({X2-Suc}-[Nle]CPPTQFCD-NH2; linker 2-8 via mXylylene)	< 10 nM	< 10 nM	< 10 nM	–	–
CCCCCC(=O)N[C@H]1CSCc2cccc(c2)CSC[C@@H](C(=O)N[C@@H](CC(=O)O)C(=O)NCCCCCNC(=O)CN2CCN(CC(=O)O)CCN(CC(=O)O)CCN(CC(=O)O)CC2)NC(=O)[C@H](Cc2ccccc2)NC(=O)[C@H](CCC(N)=O)NC(=O)[C@H]([C@@H](C)O)NC(=O)[C@@H]2CCCN2C(=O)[C@@H]2CCCN2C1=O [3BP-3403, Hex-[Cys(3MeBn)-Pro-Pro-Thr-Gln-Phe-Cys]-Asp-Ape(DOTA)] (Hexanoyl-CPPTQFCD-{NH(CH2)5NHDOTA}; linker 1-7 via mXylylene)	< 10 nM	< 10 nM	< 10 nM	–	–
CCCCCC(=O)N[C@H]1CSCc2cccc(c2)CSC[C@@H](C(=O)N[C@@H](CCCCNC(=O)CCC(=O)NCCCOCCOCCOCCCNC(=O)CN2CCN(CC(=O)O)CCN(CC(=O)O)CCN(CC(=O)O)CC2)CC(=O)O)NC(=O)[C@H](Cc2ccccc2)NC(=O)[C@H](CCC(N)=O)NC(=O)[C@H]([C@@H](C)O)NC(=O)[C@@H]2CCCN2C(=O)[C@@H]2CCCN2C1=O [3BP-3489, Hex-[Cys(3MeBn)-Pro-Pro-Thr-Gln-Phe-Cys]-Bhk(DOTA-Ttds)-OH]	< 10 nM	< 10 nM	< 10 nM	–	–
CCCCCS(=O)(=O)N[C@H]1CSCc2cccc(c2)CSC[C@@H](C(=O)N[C@@H](CC(=O)O)C(N)=O)NC(=O)[C@H](Cc2ccccc2)NC(=O)[C@H](CCC(N)=O)NC(=O)[C@H]([C@@H](C)O)NC(=O)[C@@H]2CCCN2C(=O)[C@@H]2CCCN2C1=O [3BP-3514, Pentyl-SO2-[Cys(3MeBn)-Pro-Pro-Thr-Gln-Phe-Cys]-Asp-NH2] (Pentanesulfonyl-CPPTQFCD-NH2; linker 1-7 via mXylylene)	< 10 nM	< 10 nM	< 10 nM	–	–
CCCCCC(=O)N[C@H]1CSCc2cc(CSCCNC(=O)CN3CCN(CC(=O)O)CCN(CC(=O)O)CCN(CC(=O)O)CC3)cc(c2)CSC[C@@H](C(=O)N[C@@H](CC(=O)O)C(=O)NCCCOCCOCCOCCCNC(=O)CCC(=O)N[C@@H](CCCCNC(=O)CN2CCN(CC(=O)O)CCN(CC(=O)O)CCN(CC(=O)O)CC2)C(N)=O)NC(=O)[C@H](Cc2ccccc2)NC(=O)[C@H](CCC(N)=O)NC(=O)[C@H]([C@@H](C)O)NC(=O)[C@@H]2CCCN2C(=O)[C@@H]2CCCN2C1=O [3BP-4391, Hex-[Cys(tMeBn(DOTA-AET))-Pro-Pro-Thr-Gln-Phe-Cys]-Asp-Ttds-Lys(DOTA)-NH2] (Hexanoyl-CPPTQFCD-X3; linker 1-7 via TBMB(SCH2CH2NH-DOTA))	–	–	–	< 10 nM	< 10 nM
CCCC(NC(=O)CCC(=O)NCCCOCCOCCOCCCNC(=O)CN1CCN(CC(=O)O)CCN(CC(=O)O)CCN(CC(=O)O)CC1)C(=O)N[C@H]1CSCc2cc(CSCCNC(=O)CN3CCN(CC(=O)O)CCN(CC(=O)O)CCN(CC(=O)O)CC3)cc(c2)CSC[C@@H](C(=O)N[C@@H](CC(=O)O)C(=O)NCCCOCCOCCOCCCNC(=O)CCC(=O)N[C@@H](CCCCNC(=O)CN2CCN(CC(=O)O)CCN(CC(=O)O)CCN(CC(=O)O)CC2)C(N)=O)NC(=O)[C@H](Cc2ccccc2)NC(=O)[C@H](CCC(N)=O)NC(=O)[C@H]([C@@H](C)O)NC(=O)[C@@H]2CCCN2C(=O)[C@@H]2CCCN2C1=O (stereo partly drawn) [3BP-4392, DOTA-Ttds-Nle-[Cys(tMeBn(DOTA-AET))-Pro-Pro-Thr-Gln-Phe-Cys]-Asp-Ttds-Lys(DOTA)-NH2]	–	–	–	10 to 79.4 nM	10 to 79.4 nM
CCCC(NC(=O)CCC(=O)NCCCOCCOCCOCCCNC(=O)CN1CCN(CC(=O)O)CCN(CC(=O)O)CCN(CC(=O)O)CC1)C(=O)N[C@H]1CSCc2cccc(c2)CSC[C@@H](C(=O)N[C@@H](CC(=O)O)C(=O)NCCCOCCOCCOCCCNC(=O)CCC(=O)N[C@@H](CCCCNC(=O)CN2CCN(CC(=O)O)CCN(CC(=O)O)CCN(CC(=O)O)CC2)C(N)=O)NC(=O)[C@H](Cc2ccccc2)NC(=O)[C@H](CCC(N)=O)NC(=O)[C@H]([C@@H](C)O)NC(=O)[C@@H]2CCCN2C(=O)[C@@H]2CCCN2C1=O (stereo partly drawn) [3BP-4393, DOTA-Ttds-Nle-[Cys(3MeBn)-Pro-Pro-Thr-Gln-Phe-Cys]-Asp-Ttds-Lys(DOTA)-NH2]	–	–	–	< 10 nM	< 10 nM
